{"source": "patent US20230332203A1", "about": "“RAPID ANTIBIOTIC SUSCEPTIBILITY TESTING” (IOWA STATE UNIVERSITY RESEARCH FOUNDATION, INC., priority 2022, published 2023)", "key": {"[1]": {"tested_on": "methicillin-resistant Staphylococcus aureus 33591", "assay": "Microdroplet culture with D2O labeling, average mass of PG 32:0 by MALDI-MS (Orbitrap and Biotyper)", "type": "cell-based", "settings": "range of methicillin concentrations, 20% D2O, 4 hours", "experimental": "(§1) The disclosed method was tested using the Bruker Biotyper and the results were compared to data using the method that was previously established on an Orbitrap mass spectrometer. A common cell membrane lipid, phosphatidylglycerol (PG) 32:0 was used as an indicator. Since a higher average mass is indicative of more growth, a reduced average mass indicates susceptibility to methicillin. The Biotyper is an economical and more accessible instrument but has less resolution and more error in the measurements. However, data from the Biotyper results in the same conclusions when compared to data from the Orbitrap. […]\n(§2) μFocus samples were analyzed in negative ion mode using an Orbitrap Q Exactive HF mass spectrometer (Thermo Scientific, San Jose, CA) with a Spectroglyph MALDI source (Spectroglyph, Kennewick, WA) equipped with a 349 nm laser (Explorer One; Spectra Physics, Milpitas, CA) using a 500 Hz repetition rate and ˜4 μJ per shot. Samples were analyzed at 120,000 resolving power at m/z 200. Spots were analyzed using 60 μm spatial resolution to ensure a good representation of the sample and resulting spectra were averaged in Xcalibur. Masslists from averaged spectra were then exported to .csv files and average mass of membrane lipids were calculated using a custom Python script. […]"}, "[2]": {"tested_on": "Staphylococcus aureus 25923 (susceptible)", "assay": "Microdroplet culture with D2O labeling, average mass of PG 32:0 by MALDI-MS (Orbitrap and Biotyper)", "type": "cell-based", "settings": "increasing methicillin concentration, 20% D2O, 4 hours", "experimental": "as §1, §2"}}}
{"smiles": "COc1cccc(OC)c1C(=O)N[C@@H]1C(=O)N2[C@@H]1SC(C)(C)[C@@H]2C(=O)O", "note": "[methicillin]", "values": [{"measurement": "effect on average mass of PG 32:0", "setting": "[1]", "value": "does not decrease the average mass significantly"}, {"measurement": "effect on average mass of PG 32:0", "setting": "[2]", "value": "constant decrease"}]}
